Source: paper PMC7797697 (Theranostics, 2021)
pIC50: −log10 of the molar value. Several values for one entry are separate records, joined by “and”; a condition that tells them apart may be missing. Equal values may be shown once.

What was measured:
[1] = tested on: MDA-MB-231 cells; assay: High-content epigenetic inhibitor screen, quantification of living cells; format: cell-based, human; settings: 3 μM, 72 h
Source text: (§1) HeLa, MCF-7 and MDA-MB-231 cell lines were purchased from the American Type Culture Collection. MCF-10A, T-47D, PANC-1, A549, HCT-15, Caco-2, SMMC-7721, SH-SY5Y, HUVEC and PC-3 cell lines were obtained from the Chinese Academy of Medical Sciences. MEF was isolated from pregnant mice at 14‒16 days of pregnancy. Primary breast cancer cells were isolated from breast cancer patients. All media including Dulbecco Modified Eagle Medium (DMEM), RPMI 1640 Medium and DMEM/Nutrient Mixture F-12 were supplemented with 10% fetal bovine serum (FBS), 100 units/mL penicillin, and […] streptomycin (Gibco, Waltham, MA, USA). Cells were cultured in a humidified incubator equilibrated with 5% CO2 at 37 °C. Cells were treated for 24-72 h in adherent conditions with compounds from an epigenetic small molecule inhibitor library (L1200, Topscience, Shanghai, China).
(§2) Statistical analyses of all data were performed using GraphPad Prism (version 8.0, Graph Pad Software Inc., San Diego, CA, USA). All the data were analyzed by Student's t-test or one-way ANOVA. The Z-Score was chosen to evaluate the results and experimental deviation. Quantitative data are presented as the mean ± SD. The asterisk (*) denotes statistically significant difference (P < 0.05). IC50 was calculated using a four-parameter fit with variable slope in GraphPad Prism.
To identify potential anti-tumor inhibitors, we screened an epigenetic small molecule inhibitor library for anti-tumor activity in breast cancer cells. […] The selection strategy mainly comprised three stages, in which different concentrations (high to low) of inhibitors screened with a high-content analysis instrument were identified using cancer cell lines in a 96-well plate format (Figure 1A). For the first step, we treated cells with a high concentration of compounds to exclude compounds ineffective in killing cancer cells. MDA-MB-231 cells, a human breast cancer cell line, were treated with 167 epigenetic compounds (30 μM each) for 48 h, and then analyzed by high-content analysis, where changes in cell morphology relative to the control (dimethyl sulfoxide, DMSO) would indicate modulation of cancer cells by compound treatment. […] At the second step, we treated the cells with the 60 compounds at a median concentration (3 μM) for 72 h to screen for inhibitors that can kill cancer cells with high efficiency.

[2] = tested on: HUVEC; assay: CCK8 assay IC50; format: cell-based, human; settings: normal cells, 72 h
Experimental: (§3) Cell viability was then detected using a CCK8 assay (MedChemExpress, USA) according to the manufacturer's instructions.
as §2

[3] = tested on: MDA-MB-231; assay: CCK8 assay IC50; format: cell-based, human; settings: MDA-MB-231, breast cancer, 72 h, CCK8
Experimental: as §3, §2

[4] = tested on: MEF; assay: CCK8 assay IC50; format: cell-based, mouse; settings: normal cells, 72 h
Source text: as §1, §3
as §2, with “The asterisk (*) denotes statistically significant difference (P < 0.05).” left out

[5] = tested on: Primary breast tumor cells; assay: CCK8 assay IC50; format: cell-based, human; settings: breast cancer, 72 h
Source text: as §1, §3
as §2, with “The asterisk (*) denotes statistically significant difference (P < 0.05).” left out

[6] = tested on: A549; assay: CCK8 assay IC50; format: cell-based; settings: A549, lung cancer, 72 h
Experimental: as §3, §2

[7] = tested on: Caco-2; assay: CCK8 assay IC50; format: cell-based; settings: Caco-2, colon cancer, 72 h
Experimental: as §3, §2

[8] = tested on: HCT-15; assay: CCK8 assay IC50; format: cell-based; settings: HCT-15, colon cancer, 72 h
Experimental: as §3, §2

[9] = tested on: HeLa; assay: CCK8 assay IC50; format: cell-based; settings: cervical cancer, 72 h
Experimental: as §3, §2

[10] = tested on: MCF-7; assay: CCK8 assay IC50; format: cell-based; settings: MCF-7, breast cancer, 72 h, CCK8
Experimental: as §3, §2

[11] = tested on: PANC-1; assay: CCK8 assay IC50; format: cell-based; settings: PANC-1, pancreatic cancer, 72 h
Experimental: as §3, §2

[12] = tested on: PC-3; assay: CCK8 assay IC50; format: cell-based; settings: PC-3, prostatic cancer, 72 h
Experimental: as §3, §2

[13] = tested on: SH-SY5Y; assay: CCK8 assay IC50; format: cell-based; settings: neuroblastoma, 72 h
Experimental: as §3, §2

[14] = tested on: SMMC-7721; assay: CCK8 assay IC50; format: cell-based; settings: SMMC-7721, liver cancer, 72 h
Experimental: as §3, §2

[15] = tested on: T-47D; assay: CCK8 assay IC50; format: cell-based; settings: breast cancer, 72 h
Experimental: as §3, §2

[16] = tested on: MDA-MB-231 cells; assay: Intracellular calcium measurement (Fluo-4-AM); format: cell-based, human; settings: thrombin stimulation, different concentrations of the pan-HDAC inhibitors
Experimental: After treatment, the cells were digested and seeded in 96-well black plates (Corning Costar, Cambridge, MA, USA) and cultured for 20 h. For measurement of [Ca^2+]i, the cells were labeled with Fluo-4-AM in serum-free medium for half an hour at room temperature. After washing with Dulbecco's Phosphate Buffered Saline (D-PBS), cells were overlaid in Hank's balanced salt solution (5.4 mM KCl, 1 mM MgCl2, 20 mM hydroxyethyl piperazineethanesulfonic acid (HEPES), 120 mM NaCl, 10 mM glucose, 0.2 mM Ethylenebis(oxyethylenenitrilo)tetraacetic acid (EGTA)). Continuous fluorescence intensity was detected after thrombin was added as a calcium agonist by an automated sampler. Response over baseline was assessed as a relative measure of [Ca^2+]i.
As previously stated, studies have shown that the Ca^2+ signals can modulate cancer progression by regulating migration, proliferation, cell stress, and apoptosis.

With Cc1cc(Nc2nc(N[C@@H](C)c3ccc(F)cc3)c(C#N)cc2F)[nH]n1 [AZ960] the “effect on cell survival” value [1] was “discernible effects on cell survival”.
C#Cc1cccc(Nc2ncnc3cc(OC)c(OCCCCCCC(=O)NO)cc23)c1 [CUDC-101] was tested, and the “effect on cell survival” value [1] was “discernible effects on cell survival”.
With CC(/C=C/C(=O)NO)=C\[C@@H](C)C(=O)c1ccc(N(C)C)cc1 [TSA, trichostatin A] the “effect on cell survival” value [1] was “discernible effects on cell survival”, the pIC50 [2] was > 6.00 and 6.08 and the pIC50 [3] was 6.00. For the same compound, the pIC50 [4] was > 6.00 and 6.05, the pIC50 [5] was 5.64 and the pIC50 [6] was 5.88. The pIC50 [7] was 5.52, the pIC50 [8] was 5.64 and the pIC50 [9] was 6.24. It also gave a pIC50 [10] of 6.04, a pIC50 [11] of 5.85 and a pIC50 [12] of 5.88. For the same compound, the pIC50 [13] was 6.14, the pIC50 [14] was 5.49 and the pIC50 [15] was 6.04. The “frequency and amplitude of [Ca^2+]i oscillations” value (from here on “frequency and amplitude”) [16] was “did not alter the frequency and amplitude”.
In the case of O=C(/C=C/c1cccc(S(=O)(=O)Nc2ccccc2)c1)NO [belinostat], the “effect on cell survival” value [1] was “discernible effects on cell survival”.
Cc1[nH]c2ccccc2c1CCNCc1ccc(/C=C/C(=O)NO)cc1 [panobinostat] was tested, and the “frequency and amplitude” value [16] was “did not alter the frequency and amplitude”.
In the case of CCCCc1nc2cc(/C=C/C(=O)NO)ccc2n1CCN(CC)CC [pracinostat], the “effect on cell survival” value [1] was “discernible effects on cell survival”.
With O=C(CCCCCCC(=O)Nc1ccccc1)NO [vorinostat] the “effect on cell survival” value [1] was “discernible effects on cell survival” and the “frequency and amplitude” value [16] was “did not alter the frequency and amplitude”.
